The values below come from PubChem BioAssay (NCI).

“And” between values parts separate entries of the source, which are not always exact repeats. Equal entries are not always repeated.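 Exposure lasted 48 hours, with cells grown in 96-well plates and compounds tested at five concentrations. GI50 is the concentration that inhibits growth by half. TGI marks complete inhibition of growth.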 Some results are limits rather than exact numbers.

Common to all, as to test: NCI-60 cell line screen, 48 h
Experiment [1] relates to A498 renal.
The test system of experiment [2] is EKVX NSCLC.
For experiment [3], the system named is HCT-116 colon.
The subject of experiment [4] is K-562 leukemia.
Experiment [5] deals with NCI-H522 lung.
For experiment [6], the system named is SF-268 CNS.
Experiment [7] relates to SK-MEL-2 melanoma.
Experiment [8] concerns SW-620 colon.
Experiment [9] relates to SF-295 CNS.

Regarding `COc1ccc(-c2cc(C(=O)Nc3ccc(C)c(C)c3)nc(NC#N)n2)cc1`, the TGI in experiment [1], in experiment [2], in experiment [3], in [4], in experiment [5] and in [6] was above 100 µM each time. For the same compound, the TGI in experiment [7] and in [8] was above 100 µM each time.

For `NC(=O)c1csc(C2OC(COP(=O)(O)CP(=O)(O)OCC3OC(n4cnc5c(N)ncnc54)C(O)C3O)C(O)C2O)n1` (stereo unspecified), the TGI in [1], in [2], in experiment [4], in [5], in experiment [6] and in [9] was above 100 µM in each case. Moreover, the TGI in experiment [7] and in experiment [8] was above 100 µM throughout.

With `N#CC(C#N)c1ccc(C(=O)N2CCC[C@H]2CO)cc1`, the TGI in experiment [2], in experiment [4], in experiment [5], in experiment [6], in [9] and in experiment [7] was above 100 µM in each case. This compound also displayed a TGI in experiment [8] above 100 µM.

In the case of `N#CC1=C(/N=C/c2ccccc2)Oc2c(ccc3ccccc23)C1c1ccccc1` (stereo unspecified), the GI50 in [1] was 0.191 µM; in experiment [2], 5.13 µM; in experiment [3], 0.427 µM; in experiment [4], 0.358 µM; in experiment [5] it was 0.298 µM; in [6] it was 1.02 µM. The GI50 in experiment [9] was 0.357 µM; in experiment [7], 1.41 µM; in experiment [8] it was 0.405 µM. The TGI in experiment [1] is 0.747 µM; in [2], above 100 µM; in [3], above 47.8 µM; in experiment [4], above 100 µM; in [6], above 100 µM; in experiment [9], above 100 µM. In addition, the TGI in experiment [7] and in [8] was above 100 µM throughout.

For the compound `C=C1CCC2[C@@H](CCC3[C@]2(C)CCC[C@]3(C)C(=O)OC)C1CC=O` (stereo partly specified), the GI50 in experiment [1] was 17.2 µM; in experiment [4], 8.65 µM; in experiment [5] it was 16.3 µM; in experiment [9] it was 16.8 µM. Also, the TGI in experiment [1] was found to be 31.9 µM; in experiment [2], 36 µM; in experiment [3] it was 29.4 µM; in [4], 26.6 µM; in experiment [5] it was 31.8 µM; in [6], 35.1 µM. Moreover, the TGI in experiment [9] stood at 31.3 µM; in experiment [7], 38.2 µM; in [8] it was 35 µM.

Regarding `CC12CCC(=O)N1c1ccc([N+](=O)[O-])cc1N2` (stereo unspecified), the TGI in [1], in experiment [2], in [3], in experiment [4], in experiment [5] and in experiment [6] was above 100 µM each time. Further, the TGI in experiment [9], in [7] and in experiment [8] was above 100 µM in each case.

As to `O=C(CC1SC(=Nc2ccccc2Cl)NC1=O)Nc1ccc(Cl)cc1Cl` (stereo unspecified), the TGI in [2], in experiment [3], in [6], in [9], in experiment [7] and in experiment [8] was above 100 µM throughout.

For `CCOC(=O)/C(C#N)=C(O)/C(=C\c1ccc(Br)cc1)NC(=O)c1ccccc1`, the TGI in [1] is above 100 µM; in [2] it was above 100 µM; in [3], 34.5 µM; in [4] it was above 100 µM; in [6] it was above 100 µM; in experiment [9] it was above 100 µM. This compound also came in with a TGI in experiment [8] of 51.7 µM.

With `O=S(=O)(c1cccc(N=C=S)c1)c1cccc(N=C=S)c1`, the TGI in [2] was above 100 µM; in [3], 32 µM; in experiment [4] it was above 100 µM; in [5], 32.8 µM; in experiment [6] it was 39.8 µM; in experiment [9], 39.4 µM. Moreover, the TGI in [7] is 33.8 µM.

`N#Cc1ccc(C=NC23CC4CC(CC(C4)C2)C3)cc1`: the TGI in experiment [1], in experiment [2], in experiment [3], in [4], in [5] and in experiment [6] was above 100 µM each time. The TGI in experiment [9], in [7] and in experiment [8] was above 100 µM each time.

Consider `O=C1Nc2ccccc2N=CC1NC(=O)C(c1ccccc1)c1ccccc1` (stereo unspecified), for which the TGI in experiment [1], in [2], in [3], in experiment [4], in experiment [5] and in experiment [6] was above 100 µM throughout. Besides, the TGI in experiment [9], in experiment [7] and in [8] was above 100 µM in each case.

With `CCCCCCCCCCCCC(Br)C(=O)NCC(N)=O` (stereo unspecified), the TGI in [1] was found to be 26.7 µM; in experiment [2] it was 42 µM; in experiment [3] it was 3.72 µM; in [5] it was 5.22 µM; in experiment [6] it was 17.8 µM; in experiment [9] it was 29.5 µM. The TGI is 26.4 µM in experiment [7] and 52.9 µM in experiment [8].

As to `COCOCC/C=C/C=O`, the TGI in [1], in experiment [2], in [3], in experiment [4], in experiment [5] and in [6] was above 100 µM throughout. For the same compound, the TGI in experiment [9], in experiment [7] and in experiment [8] was above 100 µM in each case.

Turning to `COCCNC(=O)C1C(=O)C(=O)N(CCOC)C1=O` (stereo unspecified), the TGI in experiment [1], in [2], in experiment [3], in experiment [4], in experiment [5] and in [6] was above 100 µM in each case. In addition, the TGI in experiment [9], in [7] and in experiment [8] was above 100 µM each time.

On to `COC(=O)[C@@]1(C(C)CC(=O)O)CCCCC1=O` (stereo partly specified), for which the TGI in experiment [1], in experiment [2], in experiment [3], in experiment [4], in [5] and in experiment [6] was above 100 µM throughout. The TGI in experiment [9] and in [7] was above 100 µM in each case.

On to `C[CH2][Sn]([CH2]C)([O]C(=O)c1ccccc1OC)[O][Sn]([CH2]C)([CH2]C)[O]C(=O)c1ccccc1OC`, for which the GI50 in experiment [1] is 44.4 µM; in [2] it was above 100 µM; in experiment [3] it was above 100 µM; in experiment [4], 47 µM; in [5], 3.02 µM; in [6] it was above 100 µM. Moreover, the GI50 in experiment [9] is above 100 µM; in experiment [7] it was 91.5 µM; in [8], 44.8 µM. The TGI in [1] was above 100 µM; in experiment [2] it was above 100 µM; in experiment [3], above 100 µM; in experiment [4] it was above 100 µM; in experiment [5], 14.7 µM; in experiment [6], above 100 µM. For the same compound, the TGI in [9], in [7] and in [8] was above 100 µM throughout.

With `CCCCC1(C)C=C/C(=C2/C(=O)O/C(=C\C(=O)O)C2=O)O1` (stereo unspecified), the TGI in [1], in experiment [2], in experiment [3], in experiment [4], in experiment [9] and in [7] was above 100 µM each time. In experiment [8], this compound gave a TGI above 100 µM.

For the compound `Cc1nc(C(=O)O)c2ccccc2n1`, the TGI in experiment [1], in experiment [3], in [4], in [6], in experiment [9] and in experiment [7] was above 100 µM throughout. The compound also registered a TGI in experiment [8] above 100 µM.

Regarding `O=c1[nH]cc(F)c(=O)n1C1OC(CO)C(O)C1O` (stereo unspecified), the TGI in experiment [2], in experiment [4], in experiment [5], in experiment [6], in experiment [9] and in experiment [7] was above 100 µM in each case. Further, the TGI in experiment [8] is above 100 µM.

For `COc1ccc(CCC2c3cc(OC)c(OC)cc3CCN2C)cc1OC` (stereo unspecified), the TGI in experiment [2], in experiment [3], in [4], in experiment [5], in experiment [6] and in [9] was above 100 µM throughout. Besides, the TGI in experiment [7] and in experiment [8] was above 100 µM in each case.

`CC1(C)CC(=O)C(/C(=N/NC(=S)NN)C(=O)Nc2nc3ccc([N+](=O)[O-])cc3s2)C(=O)C1`: the TGI in experiment [1], in experiment [2], in [3], in experiment [4], in [5] and in experiment [6] was above 100 µM throughout. The TGI in experiment [9], in experiment [7] and in [8] was above 100 µM throughout.

Turning to `O=S(=O)(/C=C/C(=C/c1ccccc1)S(=O)(=O)c1ccccc1)c1ccccc1`, the TGI in [2] was 3.15 µM; in experiment [3], 3.13 µM; in experiment [4] it was 9.19 µM; in [5], 2.85 µM; in experiment [6], 4.1 µM; in [9], 3.05 µM. In experiment [7], this compound returned a TGI of 3.54 µM.

Turning to `Cc1cc(C)nc(NS(=O)(=O)c2ccc(Nc3c4ccccc4nc4c(C(=O)Nc5ccc(S(=O)(=O)N=C(N)N)cc5)cccc34)cc2)n1`, the TGI in [1], in [2], in [4], in experiment [5], in [6] and in experiment [7] was above 100 µM each time. The same compound yielded a TGI in [8] above 100 µM.

Regarding `CC(C)(Br)C(=O)C(Br)Br`, the TGI in experiment [1] was above 54.4 µM; in experiment [2] it was 26.8 µM and 9.94 µM; in experiment [3], 9.91 µM and 9.61 µM; in experiment [5], 3.18 µM and 5.16 µM; in experiment [6], 27.1 µM and 26 µM; in experiment [9], 32.8 µM and 63.3 µM. Also, the TGI in experiment [7] was 28.8 µM and 10.8 µM; in experiment [8], 3.59 µM and 10.4 µM. The GI50 in experiment [2] is 5.23 µM; in [3] it was 5.33 µM; in [4], 2.28 µM; in experiment [5], 1.37 µM; in experiment [6], 7.42 µM; in [9], 21.1 µM. Further, the GI50 in experiment [7] is 5.75 µM; in experiment [8], 5.12 µM.

In the case of `COc1ccc(NC(=O)C2CCC(CNS(=O)(=O)c3ccccc3)CC2)cc1OC` (stereo unspecified), the GI50 in [1] is above 100 µM; in experiment [2], above 100 µM; in experiment [3], above 100 µM; in [5], 60.9 µM; in [6] it was 74.2 µM; in experiment [9], above 100 µM. Moreover, the GI50 in experiment [7] and in [8] was above 100 µM throughout. Besides, the TGI in experiment [1], in experiment [2], in [3], in experiment [5], in [6] and in experiment [9] was above 100 µM in each case. Also, the TGI in experiment [7] and in experiment [8] was above 100 µM each time.

As to `CC(C)=CC(=O)N(C)C1C2CN3CCC(O2)C13` (stereo unspecified), the TGI in experiment [1], in [2], in experiment [3], in experiment [4], in [5] and in experiment [6] was above 100 µM throughout. For the same compound, the TGI in experiment [9], in experiment [7] and in experiment [8] was above 100 µM each time.

Consider `O=C(c1nc2ccccc2[nH]c1=O)C(O)c1ccccc1` (stereo unspecified), for which the TGI in experiment [1] is 99.6 µM; in experiment [2], above 100 µM; in experiment [3], above 100 µM; in [4] it was above 100 µM; in experiment [5], above 100 µM; in experiment [6] it was above 100 µM. Also, the TGI in experiment [9], in experiment [7] and in [8] was above 100 µM throughout.

On to `O=C(O)/C=C/c1nc2ccccc2c(=O)o1`, for which the TGI in experiment [2], in experiment [3], in experiment [4], in experiment [5], in experiment [9] and in [7] was above 100 µM throughout. This compound registered a TGI in experiment [8] above 100 µM.
